Assays:
Assay type in all cases: cell-based
[1] = tested on: E. coli DH5α; test: Antibacterial activity: MIC and growth curve against E. coli DH5α in 96-well plate; conditions: minimal inhibitory concentration against E. coli DH5α; 96-well plate, 5×10^5 CFU/mL, 37° C., judged after 8 h
Outline: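 Log-phase DH5α (OD600 about 0.5, 37° C, 185 rpm in LB) was pelleted, resuspended in fresh LB and seeded at 5×10^5 CFU/mL with recombinant protein at 50, 25 and 12.5 μg/mL (two-fold series), in triplicate. Plates were shaken at 175 rpm, 37° C, and OD600 was read every 30 min. MIC was the lowest concentration with no growth.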

[2] = tested on: E. coli BL21; test: MIC against Gram-negative bacteria: E. coli BL21; conditions: 5×10^5 CFU/mL
Outline: (§1)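 Bacteria grown in LB at 37° C to McFarland 0.5, resuspended and seeded at 5×10^5 CFU/mL in 96-well plates. Purified human EGF-domain proteins two-fold serially diluted, triplicate wells; cultured at 37° C, shaking 175 rpm. MIC = lowest protein concentration with no growth.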

[3] = tested on: Pseudomonas aeruginosa; test: MIC against Gram-negative bacteria: Pseudomonas aeruginosa; conditions: 5×10^5 CFU/mL
Outline: as §1

[4] = tested on: Klebsiella pneumonia; test: MIC against Gram-negative bacteria: Klebsiella pneumonia; conditions: 5×10^5 CFU/mL
Outline: as §1

[5] = tested on: Enterobacter cloacae; test: MIC against Gram-negative bacteria: Enterobacter cloacae; conditions: 5×10^5 CFU/mL
Outline: as §1

[6] = tested on: Aeromonas hydrophila; test: MIC against Gram-negative bacteria: Aeromonas hydrophila; conditions: 5×10^5 CFU/mL
Outline: as §1

[7] = tested on: Citrobacter diversus; test: MIC against Gram-negative bacteria: Citrobacter diversus; conditions: 5×10^5 CFU/mL
Outline: as §1

[8] = tested on: Moraxella catarrhalis; test: MIC against Gram-negative bacteria: Moraxella catarrhalis; conditions: 5×10^5 CFU/mL
Outline: as §1

[9] = tested on: Proteus mirabilis; test: MIC against Gram-negative bacteria: Proteus mirabilis; conditions: 5×10^5 CFU/mL
Outline: as §1

[10] = tested on: Proteus vulgaris; test: MIC against Gram-negative bacteria: Proteus vulgaris; conditions: 5×10^5 CFU/mL
Outline: as §1

[11] = tested on: Serratia marcescens; test: MIC against Gram-negative bacteria: Serratia marcescens; conditions: 5×10^5 CFU/mL
Outline: as §1

[12] = E. coli BL21, 10 h cultivation at 37° C.
[13] = P. aeruginosa, 10 h cultivation at 37° C.
[14] = K. pneumonia, 10 h cultivation at 37° C.
[15] = E. cloacae, 10 h cultivation at 37° C.
[16] = A. hydrophila, 10 h cultivation at 37° C.
[17] = C. diversus, 10 h cultivation at 37° C.
[18] = M. catarrhalis, 10 h cultivation at 37° C.
[19] = P. mirabilis, 10 h cultivation at 37° C.
[20] = P. vulgaris, 10 h cultivation at 37° C.
[21] = S. marcescens, 10 h cultivation at 37° C.

PRT466 (RHTACLSSPCLNGGTCHLIVATGTTVCACPPGFAGRLCN; listed as Homo sapiens)
MIC [1]: 12.5 µg/mL | MIC against E. coli BL21 ([2]; 96-well plate, 37° C., 10 h): 50 µg/mL | MIC against P. aeruginosa ([3]; 96-well plate, 37° C., 10 h): 12.5 µg/mL | MIC against K. pneumonia ([4]; 96-well plate, 37° C., 10 h): 50 µg/mL | MIC against E. cloacae ([5]; 96-well plate, 37° C., 10 h): 12.5 µg/mL | MIC against A. hydrophila ([6]; 96-well plate, 37° C., 10 h): 50 µg/mL | MIC against C. diversus ([7]; 96-well plate, 37° C., 10 h): 12.5 µg/mL | MIC against M. catarrhalis ([8]; 96-well plate, 37° C., 10 h): 50 µg/mL | MIC against P. mirabilis ([9]; 96-well plate, 37° C., 10 h): 12.5 µg/mL | MIC against P. vulgaris ([10]; 96-well plate, 37° C., 10 h): 50 µg/mL | MIC against S. marcescens ([11]; 96-well plate, 37° C., 10 h): 12.5 µg/mL

PRT174 (CASSPCANGGTCRDGVNDFSCTCPPGYTGRNC; listed as Homo sapiens)
MIC [1]: 50 µg/mL | MIC (μg/mL) E. coli BL21 [2, 12]: 12.5 µg/mL | MIC (μg/mL) P. aeruginosa [3, 13]: 25 µg/mL | MIC (μg/mL) K. pneumonia [4, 14]: 50 µg/mL | MIC (μg/mL) E. cloacae [5, 15]: 25 µg/mL | MIC (μg/mL) A. hydrophila [6, 16]: 12.5 µg/mL | MIC (μg/mL) C. diversus [7, 17]: 25 µg/mL | MIC (μg/mL) M. catarrhalis [8, 18]: 50 µg/mL | MIC (μg/mL) P. mirabilis [9, 19]: 12.5 µg/mL | MIC (μg/mL) P. vulgaris [10, 20]: 50 µg/mL | MIC (μg/mL) S. marcescens [11, 21]: 12.5 µg/mL

PRT199 (CLPETCNMKGICNNKHHCHCGYGWSPPYCQ; listed as Homo sapiens)
MIC [1]: 25 µg/mL | MIC (μg/mL) E. coli BL21 [2, 12]: 12.5 µg/mL | MIC (μg/mL) P. aeruginosa [3, 13]: 12.5 µg/mL | MIC (μg/mL) K. pneumonia [4, 14]: 12.5 µg/mL | MIC (μg/mL) E. cloacae [5, 15]: 12.5 µg/mL | MIC (μg/mL) A. hydrophila [6, 16]: 12.5 µg/mL | MIC (μg/mL) C. diversus [7, 17]: 12.5 µg/mL | MIC (μg/mL) M. catarrhalis [8, 18]: 12.5 µg/mL | MIC (μg/mL) P. mirabilis [9, 19]: 12.5 µg/mL | MIC (μg/mL) P. vulgaris [10, 20]: 12.5 µg/mL | MIC (μg/mL) S. marcescens [11, 21]: 25 µg/mL

PRT1497 (KPVCEPGCGAHGTCHEPNKCQCQEGWHGRHCN; listed as Homo sapiens)
MIC [1]: 50 µg/mL | MIC (μg/mL) E. coli BL21 ([2]; E. coli BL21, 96-well plate, 37° C., 10 h): 25 µg/mL | MIC (μg/mL) P. aeruginosa ([3]; Pseudomonas aeruginosa, 96-well plate, 37° C., 10 h): 12.5 µg/mL | MIC (μg/mL) K. pneumonia ([4]; Klebsiella pneumonia, 96-well plate, 37° C., 10 h): 50 µg/mL | MIC (μg/mL) E. cloacae ([5]; Enterobacter cloacae, 96-well plate, 37° C., 10 h): 25 µg/mL | MIC (μg/mL) A. hydrophila ([6]; Aeromonas hydrophila, 96-well plate, 37° C., 10 h): 12.5 µg/mL | MIC (μg/mL) C. diversus ([7]; Citrobacter diversus, 96-well plate, 37° C., 10 h): 25 µg/mL | MIC (μg/mL) M. catarrhalis ([8]; Moraxella catarrhalis, 96-well plate, 37° C., 10 h): 50 µg/mL | MIC (μg/mL) P. mirabilis ([9]; Proteus mirabilis, 96-well plate, 37° C., 10 h): 12.5 µg/mL | MIC (μg/mL) P. vulgaris ([10]; Proteus vulgaris, 96-well plate, 37° C., 10 h): 50 µg/mL | MIC (μg/mL) S. marcescens ([11]; Serratia marcescens, 96-well plate, 37° C., 10 h): 12.5 µg/mL

PRT631 (CSCHPQGSVSEQMPCDPVTGQCSCLPHVTARDCSRCYPGFFDLQPGRGCRS; listed as Homo sapiens)
MIC [1]: 25 µg/mL | MIC E. coli BL21 ([2]; 96-well plate, 37° C., 10 h): 12.5 µg/mL | MIC P. aeruginosa ([3]; 96-well plate, 37° C., 10 h): 25 µg/mL | MIC K. pneumonia ([4]; 96-well plate, 37° C., 10 h): 12.5 µg/mL | MIC E. cloacae ([5]; 96-well plate, 37° C., 10 h): 25 µg/mL | MIC A. hydrophila ([6]; 96-well plate, 37° C., 10 h): 12.5 µg/mL | MIC C. diversus ([7]; 96-well plate, 37° C., 10 h): 25 µg/mL | MIC M. catarrhalis ([8]; 96-well plate, 37° C., 10 h): 12.5 µg/mL | MIC P. mirabilis ([9]; 96-well plate, 37° C., 10 h): 25 µg/mL | MIC P. vulgaris ([10]; 96-well plate, 37° C., 10 h): 12.5 µg/mL | MIC S. marcescens ([11]; 96-well plate, 37° C., 10 h): 25 µg/mL

PRT1418 (IAHYLDRVVKEGCPGLCNGNGRCTLDLNGWHCVCQLGWRGAGCD; listed as Homo sapiens)
MIC [1]: 25 µg/mL | MIC against E. coli BL21 [2, 12]: 12.5 µg/mL | MIC against P. aeruginosa ([3]; Pseudomonas aeruginosa, 10 h cultivation at 37° C.): 25 µg/mL | MIC against K. pneumonia ([4]; Klebsiella pneumonia, 10 h cultivation at 37° C.): 50 µg/mL | MIC against E. cloacae ([5]; Enterobacter cloacae, 10 h cultivation at 37° C.): 25 µg/mL | MIC against A. hydrophila ([6]; Aeromonas hydrophila, 10 h cultivation at 37° C.): 25 µg/mL | MIC against C. diversus ([7]; Citrobacter diversus, 10 h cultivation at 37° C.): 12.5 µg/mL | MIC against M. catarrhalis ([8]; Moraxella catarrhalis, 10 h cultivation at 37° C.): 50 µg/mL | MIC against P. mirabilis ([9]; Proteus mirabilis, 10 h cultivation at 37° C.): 12.5 µg/mL | MIC against P. vulgaris ([10]; Proteus vulgaris, 10 h cultivation at 37° C.): 50 µg/mL | MIC against S. marcescens ([11]; Serratia marcescens, 10 h cultivation at 37° C.): 25 µg/mL
